Experimental data from patent publication US20240082212A1, “USE OF MDMA FOR TREATMENT OF STRESS-RELATED DISORDERS” (priority 2022, published 2024).
Entries after “also recorded” stand apart in the source; their conditions may differ.

Assays:
cortical neurons = assay: Neurite outgrowth in embryonic rat cortical neuron cultures; assay type: cell-based; conditions: 3 days
Procedure, shortened: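 Cortical neurons from E17 Wistar rat embryos were treated with compound for 3 days, then fixed and stained for βIII-tubulin. Neurite count, total length and branch points per neuron were measured by high-content imaging. Values are expressed as % of vehicle, n=12 wells from two cultures, with ANOVA and Dunnett's test.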

CD (Sprague Dawley) rats = assay: Rat telemetry: heart rate, blood pressure, body temperature, activity after cumulative SC dosing; assay type: in vivo; conditions: for hemodynamic parameters (systolic/diastolic/mean arterial blood pressures and heart rate): cumulative doses 5, 10, or 20 mg/kg/day; for activity (implanted telemetry devices): all cumulative doses (5, 10, or 20 mg/kg/day); for peak body temperatures: overall mean magnitude of change; for Rank Order Blood Pressures (Systolic, Diastolic, and Mean Arterial) Effects / Rank Order Body Temperature Effects / Rank Order General Activity Effects / Rank Order Heart Rate Measurement Effects: telemetry, cumulative SC dosing, dose groups stated in the value
Source text: Methods. A total of 42 adult male CD® (Sprague Dawley) rats (Charles River Laboratories) were surgically implanted with DSI radiotelemetry devices by personnel at Charles River Laboratories Raleigh, NC, per their test site SOPs. Telemetry devices supported continuous recording of temperature, activity, blood pressure and heart rate. Telemeterized rats were shipped to the Charles River Laboratories testing facility (Mattawan, MI) and acclimated to the environment for at least 1 week prior to experimentation. Animals were pair-housed in solid bottom cages with nonaromatic bedding. On the dosing day, animals were singly housed and then returned to the paired cohort following the dosing/telemetry recording phase. Diet (Lab Diet® Certified Rodent Diet #5CR4) and tap water via an automatic water system were available ad libitum, except during designated procedures. Temperature and humidity were maintained according to the Testing Facility SOP. Animals were randomized into treatment groups using a standard, by weight, measured value randomization procedure. Body weight was determined for each rat prior to dosing.
As illustrated in the Table, a total of 36 rats were included in the study. The vehicle and 2 test article doses were administered in a volume of 1 mL/kg to each of 3 groups of n=12 telemeterized rats via subcutaneous injection four times on a given day, followed by neurobehavioral evaluations. This series was repeated 3 times on study. Each group received all 3 dose levels of the applicable test or control article in ascending order with a 1-week washout between dose levels.
Mortality/cage side clinical observations were conducted for all study animals at least twice daily beginning upon receipt through termination, except on days of receipt and termination where frequency was at least once daily. Detailed clinical observations were conducted for all study animals prior to each of the four cumulative doses in a series. Individual body weights were conducted for all study animals at transfer, prior to randomization, on the day of dosing on each of the 3 cycles of dosing. The body weights recorded at transfer and prior to randomization are not reported but are maintained in the study file. Veterinary care was available throughout the course of the study, and animals were examined by the veterinary staff as needed based on clinical signs or other changes. All animals were provided with HydroGel the night prior to their respective dosing days to potentially mitigate any animal welfare issues related to fluid loss/dehydration.
Telemetry monitoring was conducted for all animals 2 hours prior to dosing and through to 7.5 hours following the last (4th) cumulative dose of each series, which included continuous data collection of body temperature, activity, heart rate, and blood pressure (systolic, diastolic, and mean arterial) using telemetry.
The total period of time over which the statistical analyses were conducted encompassed the entire dosing period for all animals (i.e., Dose 1 through 7.5 hour post-4th dose) in an effort to draw conclusions regarding the effects of the dosing procedure and cumulative changes by allowing comparisons between the cumulative dosing periods. The following statistical analyses were performed for each analysis segment.
All time-series data comparisons conducted via statistical analysis are relative to the control treatment and are based on the LSMean values. Additionally, the change values used for the statistical analysis were calculated using a baseline of the 2 hours of pre-dose data, prior to the first compound injection of the series. The raw change values were analyzed.

[1] = Rat brain monoamine and metabolite concentrations 1 week after cumulative SC dosing; conditions: cumulative SC, 1 week after dosing; for frontal cortex 5-HT (serotonin) compared to vehicle: 5 mg/kg
[2] = 10 μM, vs 0.1% sterile water vehicle
[3] = maximum change, R-MDMA and racemic MDMA 10, 20 mg/kg/day, S-MDMA 5, 10 mg/kg/day, 4 hourly SC injections
[4] = any tested concentration (0.001 to 10000 nM), vs vehicle
[5] = racemic MDMA 20 mg/kg/day, S-MDMA 10 mg/kg/day, approximate

CNC(C)Cc1ccc2c(c1)OCO2 (single isomer, unassigned) [R-MDMA, R(−)-3,4-methylenedioxymethamphetamine]
neurite number (#) (cortical neurons; 0.0001 μM, vs 0.1% sterile water vehicle): significantly increased
neurite number (#) (cortical neurons; [2]): significantly increased
neurite total length (μm) (cortical neurons; [2]): significantly increased
total number of branch points (#) (cortical neurons; [2]): significantly increased
stepwise increases in blood pressure or heart rate with repeated doses (CD (Sprague Dawley) rats; 4 hourly SC injections during telemetry monitoring): no stepwise increases in blood pressure or heart rate were observed
hemodynamic parameters (systolic/diastolic/mean arterial blood pressures and heart rate) (CD (Sprague Dawley) rats; 4 hourly SC injections): dose-dependent blood pressure-increasing effects
body temperature response (CD (Sprague Dawley) rats; R-MDMA 10 mg/kg/day, 4 hourly SC injections): hypothermic response
body temperature response (CD (Sprague Dawley) rats; R-MDMA 20 mg/kg/day, 4 hourly SC injections): hyperthermic response
activity (implanted telemetry devices) (CD (Sprague Dawley) rats): Activity-increasing effects
recovery of blood pressure effects (CD (Sprague Dawley) rats; by the end of telemetry monitoring (7.5 h after 4th dose)): only test article examined which produced recoverable effects by the end of telemetry monitoring
heart rate increase (CD (Sprague Dawley) rats; [3]): up to +23%
peak body temperatures (CD (Sprague Dawley) rats; 4 hourly SC injections): 38.6 °C
Rank Order Blood Pressures (Systolic, Diastolic, and Mean Arterial) Effects (CD (Sprague Dawley) rats): R-MDMA (10 mg/kg/day) < S-MDMA (5 mg/kg/day) < Rac.-MDMA (10 mg/kg/day); also recorded: R-MDMA (20 mg/kg/day) < S-MDMA (10 mg/kg/day) < Rac-MDMA (20 mg/kg/day); also recorded: R-MDMA (0 mg/kg/day) < R-MDMA (10 mg/kg/day) < R-MDMA (20 mg/kg/day); also recorded: R-MDMA (10 mg/kg/day) < S-MDMA (10 mg/kg/day) < Rac-MDMA (20 mg/kg/day)
Rank Order Body Temperature Effects (CD (Sprague Dawley) rats): R-MDMA (10 mg/kg/day) < S-MDMA (5 mg/kg/day) < Rac.-MDMA (10 mg/kg/day); also recorded: R-MDMA (20 mg/kg/day) < S-MDMA (10 mg/kg/day) < Rac-MDMA (20 mg/kg/day); also recorded: R-MDMA (0 mg/kg/day) < R-MDMA (10 mg/kg/day) < R-MDMA (20 mg/kg/day); also recorded: R-MDMA (10 mg/kg/day) < S-MDMA (10 mg/kg/day) < Rac-MDMA (20 mg/kg/day)
Rank Order General Activity Effects (CD (Sprague Dawley) rats): R-MDMA (10 mg/kg/day) < S-MDMA (5 mg/kg/day) < Rac.-MDMA (10 mg/kg/day); also recorded: R-MDMA (20 mg/kg/day) < S-MDMA (10 mg/kg/day) < Rac-MDMA (20 mg/kg/day); also recorded: R-MDMA (0 mg/kg/day) < R-MDMA (10 mg/kg/day) < R-MDMA (20 mg/kg/day); also recorded: R-MDMA (10 mg/kg/day) < S-MDMA (10 mg/kg/day) < Rac-MDMA (20 mg/kg/day)
Rank Order Heart Rate Measurement Effects (CD (Sprague Dawley) rats): R-MDMA (10 mg/kg/day) < S-MDMA (5 mg/kg/day) < Rac.-MDMA (10 mg/kg/day); also recorded: R-MDMA (20 mg/kg/day) < S-MDMA (10 mg/kg/day) < Rac-MDMA (20 mg/kg/day); also recorded: R-MDMA (0 mg/kg/day) < R-MDMA (10 mg/kg/day) < R-MDMA (20 mg/kg/day); also recorded: R-MDMA (10 mg/kg/day) < S-MDMA (10 mg/kg/day) < Rac-MDMA (20 mg/kg/day)
striatal DA compared to the corresponding vehicle condition ([1]; 5 mg/kg/injection): significantly increased striatal DA
frontal cortex 5-HT (serotonin) compared to vehicle ([1]; 5 mg/kg/injection): did not reduce serotonin content in the frontal cortex
striatal HVA compared to the pooled vehicle condition ([1]; 10 mg/kg/injection, n=2): significantly reduced striatal HVA

CNC(C)Cc1ccc2c(c1)OCO2 (single isomer, unassigned) [S-MDMA, S(+)-MDMA]
neurite number (#) (cortical neurons; [4]): did not significantly alter
neurite total length (μm) (cortical neurons; [4]): did not significantly alter
total number of branch points (#) (cortical neurons; [4]): did not significantly alter
hemodynamic parameters (systolic/diastolic/mean arterial blood pressures and heart rate) (CD (Sprague Dawley) rats; 4 hourly SC injections): dose-dependent blood pressure-increasing effects
period of significantly decreased body temperature compared to R-MDMA (10 mg/kg/day) (CD (Sprague Dawley) rats; S-MDMA 10 mg/kg/day, approximate): 0.5-1 hours post initiation of dosing
body temperature response (CD (Sprague Dawley) rats; S-MDMA 5, 10 mg/kg/day, racemic-MDMA 10, 20 mg/kg/day, 4 hourly SC injections): hyperthermic response
activity (implanted telemetry devices) (CD (Sprague Dawley) rats): Activity-increasing effects
blood pressure increase [mean arterial pressure] (CD (Sprague Dawley) rats; [3]): up to +36%
peak body temperatures (CD (Sprague Dawley) rats; 4 hourly SC injections): 39.5 °C
period of significantly increased body temperature compared to R-MDMA (10 mg/kg/day) (CD (Sprague Dawley) rats; [5]): 3.5-4 hours post initiation of dosing
period of significantly increased heart rate compared to R-MDMA (10 mg/kg/day) (CD (Sprague Dawley) rats; [5]): 5-10 hours post initiation of dosing
period of significantly increased mean arterial blood pressure compared to R-MDMA (10 mg/kg/day) (CD (Sprague Dawley) rats; [5]): 1.5-3 hours post initiation of dosing
period of significantly increased systolic blood pressure compared to R-MDMA (10 mg/kg/day) (CD (Sprague Dawley) rats; [5]): 1.5-3 hours post initiation of dosing
Rank Order Blood Pressures (Systolic, Diastolic, and Mean Arterial) Effects (CD (Sprague Dawley) rats): R-MDMA (10 mg/kg/day) < S-MDMA (5 mg/kg/day) < Rac.-MDMA (10 mg/kg/day); also recorded: R-MDMA (20 mg/kg/day) < S-MDMA (10 mg/kg/day) < Rac-MDMA (20 mg/kg/day); also recorded: S-MDMA (0 mg/kg/day) < S-MDMA (5 mg/kg/day) < S-MDMA (10 mg/kg/day); also recorded: R-MDMA (10 mg/kg/day) < S-MDMA (10 mg/kg/day) < Rac-MDMA (20 mg/kg/day)
Rank Order Body Temperature Effects (CD (Sprague Dawley) rats): R-MDMA (10 mg/kg/day) < S-MDMA (5 mg/kg/day) < Rac.-MDMA (10 mg/kg/day); also recorded: R-MDMA (20 mg/kg/day) < S-MDMA (10 mg/kg/day) < Rac-MDMA (20 mg/kg/day); also recorded: S-MDMA (0 mg/kg/day) < S-MDMA (5 mg/kg/day) < S-MDMA (10 mg/kg/day); also recorded: R-MDMA (10 mg/kg/day) < S-MDMA (10 mg/kg/day) < Rac-MDMA (20 mg/kg/day)
Rank Order General Activity Effects (CD (Sprague Dawley) rats): R-MDMA (10 mg/kg/day) < S-MDMA (5 mg/kg/day) < Rac.-MDMA (10 mg/kg/day); also recorded: R-MDMA (20 mg/kg/day) < S-MDMA (10 mg/kg/day) < Rac-MDMA (20 mg/kg/day); also recorded: S-MDMA (0 mg/kg/day) < S-MDMA (5 mg/kg/day) < S-MDMA (10 mg/kg/day); also recorded: R-MDMA (10 mg/kg/day) < S-MDMA (10 mg/kg/day) < Rac-MDMA (20 mg/kg/day)
Rank Order Heart Rate Measurement Effects (CD (Sprague Dawley) rats): R-MDMA (10 mg/kg/day) < S-MDMA (5 mg/kg/day) < Rac.-MDMA (10 mg/kg/day); also recorded: R-MDMA (20 mg/kg/day) < S-MDMA (10 mg/kg/day) < Rac-MDMA (20 mg/kg/day); also recorded: S-MDMA (0 mg/kg/day) < S-MDMA (5 mg/kg/day) < S-MDMA (10 mg/kg/day); also recorded: R-MDMA (10 mg/kg/day) < S-MDMA (10 mg/kg/day) < Rac-MDMA (20 mg/kg/day)
frontal cortex 5-HT (serotonin) compared to vehicle ([1]; 5 mg/kg/injection): significantly decreased frontal cortex 5-HT concentrations
